Laboratory results taken from PubChem BioAssay AID248 (DTP/NCI, 2004).
Where “and” joins values, the source holds several entries; their conditions need not be identical. Identical values can stand only once. Inconclusive results and toxic doses are left out.

Test system: L1210 leukemia ip in BDF1 mice, survival T/C
Test: NCI In Vivo Anticancer Drug Screen. Data for tumor model L1210 Leukemia (intraperitoneal) in B6D2F1 (BDF1) mice
Settings: endpoint: mean survival time, higher = longer survival
In short: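 Value reflects the ratio of survival in compound-treated mice to survival in vehicle-treated controls, with both groups carrying the same transplanted tumor.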

[1] = dose: 200.0 mg/kg/injection, schedule: Q04DX002 (ip), vehicle: saline
[2] = dose: 100.0 mg/kg/injection, schedule: Q04DX003 (ip), vehicle: Klucel (hydroxypropylcellulose) (HPC)
[3] = dose: 200.0 mg/kg/injection, schedule: Q04DX003 (ip), vehicle: Klucel (hydroxypropylcellulose) (HPC)
[4] = dose: 400.0 mg/kg/injection, schedule: Q04DX003 (ip), vehicle: Klucel (hydroxypropylcellulose) (HPC)
[5] = dose: 100.0 mg/kg/injection, schedule: Q01DX009 (ip), vehicle: Klucel (hydroxypropylcellulose) (HPC)
[6] = dose: 200.0 mg/kg/injection, schedule: Q01DX009 (ip), vehicle: Klucel (hydroxypropylcellulose) (HPC)
[7] = dose: 400.0 mg/kg/injection, schedule: Q01DX009 (ip), vehicle: Klucel (hydroxypropylcellulose) (HPC)
[8] = dose: 100.0 mg/kg/injection, schedule: Q04DX003 (ip), vehicle: saline with Tween-80
[9] = dose: 200.0 mg/kg/injection, schedule: Q04DX003 (ip), vehicle: saline with Tween-80
[10] = dose: 100.0 mg/kg/injection, schedule: Q04DX003 (ip), vehicle: saline
[11] = dose: 100.0 mg/kg/injection, schedule: Q04DX002 (ip), vehicle: saline with Tween-80
[12] = dose: 200.0 mg/kg/injection, schedule: Q04DX002 (ip), vehicle: saline with Tween-80
[13] = dose: 400.0 mg/kg/injection, schedule: Q04DX002 (ip), vehicle: saline with Tween-80
[14] = dose: 100.0 mg/kg/injection, schedule: Q01DX009 (ip), vehicle: saline with Tween-80
[15] = dose: 200.0 mg/kg/injection, schedule: Q01DX009 (ip), vehicle: saline with Tween-80
[16] = dose: 400.0 mg/kg/injection, schedule: Q04DX003 (ip), vehicle: saline with Tween-80

SMILES: Cc1ccc([N+](=O)[O-])cc1NC(=O)Nc1ccc(Nc2ccccc2)cc1
- T/C (dose: 100.0 mg/kg/injection, schedule: Q04DX002 (ip), vehicle: Klucel (hydroxypropylcellulose) (HPC)): 86 % of control
- T/C (dose: 200.0 mg/kg/injection, schedule: Q04DX002 (ip), vehicle: Klucel (hydroxypropylcellulose) (HPC)): 86 % of control
- T/C (dose: 400.0 mg/kg/injection, schedule: Q04DX002 (ip), vehicle: Klucel (hydroxypropylcellulose) (HPC)): 97 % of control

SMILES: O=C(O)/C(I)=C(\I)C(=O)O
- T/C (dose: 100.0 mg/kg/injection, schedule: Q04DX002 (ip), vehicle: saline): 106 % of control
- T/C [1]: 117 % of control

SMILES: O=[N+]([O-])CC(O)C(F)(F)C(F)(F)C(F)(F)F (configuration not stated)
- T/C [2]: 105 % of control
- T/C [3]: 100 % of control
- T/C [4]: 100 % of control

SMILES: C(/C=N/Nc1cnccn1)=N\Nc1cnccn1
- T/C [5]: 89 % of control
- T/C [6]: 89 % of control
- T/C [7]: 110 % of control

SMILES: COC(=O)c1ccc[n+](CC(=O)c2ccccc2)c1
- T/C [8]: 95 % of control
- T/C [9]: 88 % of control

SMILES: O=C(O)CCc1ccc(-c2ccccc2)[nH]1
- T/C (dose: 100.0 mg/kg/injection, schedule: Q01DX001 (ip), vehicle: Klucel (hydroxypropylcellulose) (HPC)): 106 % of control
- T/C (dose: 200.0 mg/kg/injection, schedule: Q01DX001 (ip), vehicle: Klucel (hydroxypropylcellulose) (HPC)): 104 % of control
- T/C (dose: 400.0 mg/kg/injection, schedule: Q01DX001 (ip), vehicle: Klucel (hydroxypropylcellulose) (HPC)): 106 % of control

SMILES: Clc1nc(Cl)nc(Cl)n1
- T/C (dose: 100.0 mg/kg/injection, schedule: Q04DX002 (ip), vehicle: other): 98 % of control
- T/C (dose: 200.0 mg/kg/injection, schedule: Q04DX002 (ip), vehicle: other): 95 % of control

SMILES: OCC1(c2ccccc2)CCN(Cc2ccccc2)CC1
- T/C [5]: 91 % of control
- T/C [2]: 104 % of control
- T/C [6]: 96 % of control
- T/C [3]: 101 % of control
- T/C [7]: 91 % of control
- T/C [4]: 97 % of control

SMILES: Cc1ccc(NC(=O)N(CCCl)N=O)cc1NC(=O)N(CCCl)N=O
- T/C (dose: 177.0 mg/kg/injection, schedule: Q01DX001 (ip), vehicle: carboxymethylcellulose (CMC)): 154 % of control
- T/C (dose: 266.0 mg/kg/injection, schedule: Q01DX001 (ip), vehicle: carboxymethylcellulose (CMC)): 152 % of control
- T/C (dose: 266.0 mg/kg/injection, schedule: Q01DX009 (ip), vehicle: carboxymethylcellulose (CMC)): 152 % of control
- T/C (dose: 400.0 mg/kg/injection, schedule: Q01DX001 (ip), vehicle: carboxymethylcellulose (CMC)): 157 % of control
- T/C (dose: 400.0 mg/kg/injection, schedule: Q01DX009 (ip), vehicle: carboxymethylcellulose (CMC)): 195 % of control
- T/C (dose: 600.0 mg/kg/injection, schedule: Q01DX001 (ip), vehicle: carboxymethylcellulose (CMC)): 158 % of control
- T/C (dose: 600.0 mg/kg/injection, schedule: Q01DX009 (ip), vehicle: carboxymethylcellulose (CMC)): 202 % of control

SMILES: C/C(=N/N(C)C)c1cccc(C(F)(F)F)c1
- T/C [10]: 98 % of control
- T/C (dose: 200.0 mg/kg/injection, schedule: Q04DX003 (ip), vehicle: saline): 116 % of control

SMILES: CCN(CC)CCNc1ncnc2[nH]ncc12
- T/C (dose: 25.0 mg/kg/injection, schedule: Q04DX003 (ip), vehicle: saline): 89 % of control
- T/C (dose: 50.0 mg/kg/injection, schedule: Q04DX003 (ip), vehicle: saline): 86 % of control
- T/C [10]: 103 % of control and 89 % of control

SMILES: O=S(=O)(CCCl)CCc1ccccc1
- T/C [11]: 96 % of control
- T/C [12]: 89 % of control
- T/C [13]: 93 % of control

SMILES: COc1ccc(C(C)C(C)=O)cc1 (configuration not stated)
- T/C (dose: 50.0 mg/kg/injection, schedule: Q01DX009 (ip), vehicle: saline with Tween-80): 95 % of control

SMILES: CC(C)(C)OOC(=O)Nc1ccc(Cl)cc1
- T/C (dose: 200.0 mg/kg/injection, schedule: Q01DX001 (ip), vehicle: saline with Tween-80): 89 % of control
- T/C (dose: 400.0 mg/kg/injection, schedule: Q01DX001 (ip), vehicle: saline with Tween-80): 92 % of control

SMILES: CC(C)CCOC(=O)C(O)c1ccccc1 (configuration not stated)
- T/C [5]: 98 % of control
- T/C [2]: 100 % of control
- T/C [6]: 92 % of control
- T/C [3]: 88 % of control
- T/C [7]: 95 % of control
- T/C [4]: 91 % of control

SMILES: CC(=O)Nc1nc(=O)n(CC(=O)c2cccs2)cc1F
- T/C [14]: 98 % of control
- T/C [8]: 102 % of control
- T/C [15]: 98 % of control
- T/C [9]: 97 % of control
- T/C [16]: 101 % of control

SMILES: NC(CSSc1ccccc1)=NCC12CC3CC(CC(C3)C1)C2
- T/C (dose: 10.0 mg/kg/injection, schedule: Q01DX001 (ip), vehicle: carboxymethylcellulose (CMC)): 96 % of control
- T/C (dose: 20.0 mg/kg/injection, schedule: Q01DX001 (ip), vehicle: carboxymethylcellulose (CMC)): 98 % of control

SMILES: NC(=O)Cc1ccc(O)cc1
- T/C (dose: 12.5 mg/kg/injection, schedule: Q04DX002 (ip), vehicle: saline with Tween-80): 98 % of control
- T/C (dose: 25.0 mg/kg/injection, schedule: Q04DX002 (ip), vehicle: saline with Tween-80): 107 % of control
- T/C (dose: 50.0 mg/kg/injection, schedule: Q04DX002 (ip), vehicle: saline with Tween-80): 93 % of control and 105 % of control
- T/C (dose: 50.0 mg/kg/injection, schedule: Q04DX002 (ip), vehicle: saline): 113 % of control
- T/C [11]: 98 % of control and 101 % of control
- T/C [12]: 96 % of control and 98 % of control
- T/C [1]: 113 % of control
- T/C [13]: 101 % of control

SMILES: O=C(O)c1ccc2c(c1Nc1ccccc1)C(=O)c1ccccc1C2=O
- T/C (dose: 100.0 mg/kg/injection, schedule: Q01DX009 (ip), vehicle: saline): 106 % of control
- T/C (dose: 200.0 mg/kg/injection, schedule: Q01DX009 (ip), vehicle: saline): 94 % of control
- T/C (dose: 400.0 mg/kg/injection, schedule: Q01DX009 (ip), vehicle: saline): 94 % of control

SMILES: CC(Cl)(/N=N/C(C)(Cl)c1cccc(Cl)c1)c1ccc(Cl)cc1 (configuration not stated)
- T/C [8]: 94 % of control

SMILES: CCCCCCCCCCNc1ccc(NCCCCCCCCCC)cc1
- T/C [5]: 108 % of control
- T/C [2]: 95 % of control
- T/C [6]: 109 % of control
- T/C [3]: 102 % of control
- T/C [7]: 90 % of control
- T/C [4]: 105 % of control

SMILES: COCC(=O)C(C(C)=O)C(c1ccc(N(C)C)cc1)C(C(C)=O)C(=O)COC (configuration not stated)
- T/C [8]: 98 % of control
- T/C [9]: 89 % of control
- T/C [16]: 91 % of control

SMILES: COC(=O)CSc1ncc2cnccn12
- T/C (dose: 100.0 mg/kg/injection, schedule: Q01DX009 (ip), vehicle: water): 105 % of control
- T/C (dose: 100.0 mg/kg/injection, schedule: Q04DX003 (ip), vehicle: water): 119 % of control
- T/C (dose: 200.0 mg/kg/injection, schedule: Q01DX009 (ip), vehicle: water): 98 % of control
- T/C (dose: 200.0 mg/kg/injection, schedule: Q04DX003 (ip), vehicle: water): 98 % of control
- T/C (dose: 400.0 mg/kg/injection, schedule: Q01DX009 (ip), vehicle: water): 98 % of control
- T/C (dose: 400.0 mg/kg/injection, schedule: Q04DX003 (ip), vehicle: water): 104 % of control

SMILES: CN(C)N=Nc1ccccc1I
- T/C [5]: 103 % of control
- T/C [6]: 104 % of control and 105 % of control
- T/C [7]: 113 % of control and 116 % of control
- T/C (dose: 600.0 mg/kg/injection, schedule: Q01DX009 (ip), vehicle: Klucel (hydroxypropylcellulose) (HPC)): 115 % of control

SMILES: CCCCCCCC(=O)C(C)C
- T/C [5]: 95 % of control
- T/C [2]: 99 % of control
- T/C [6]: 98 % of control
- T/C [3]: 100 % of control
- T/C [7]: 102 % of control
- T/C [4]: 91 % of control

SMILES: Clc1cccc(-c2nc3ccccc3c3ccccc23)c1
- T/C [14]: 90 % of control
- T/C [15]: 100 % of control
- T/C (dose: 400.0 mg/kg/injection, schedule: Q01DX009 (ip), vehicle: saline with Tween-80): 103 % of control

SMILES: O=C(O)c1ccccc1-c1ccccc1C(=O)Nc1ccc2c(c1)Cc1cc(F)ccc1-2
- T/C (dose: 75.0 mg/kg/injection, schedule: Q01DX001 (ip), vehicle: carboxymethylcellulose (CMC)): 91 % of control
- T/C (dose: 150.0 mg/kg/injection, schedule: Q01DX001 (ip), vehicle: carboxymethylcellulose (CMC)): 98 % of control
